These results are taken from US20190100534A1, “Cephem Compounds with Latent Reactive Groups” (Gladius Pharmaceuticals, Inc., priority 2017, published 2019).

Bounds are passed on as bounds.

In experiment [1] the test system is Isogenic E. coli J58 strain carrying IMP-1. The experiment in a line: MIC determination, isogenic E. coli strains. The experiment is classed as cell-based. The conditions noted are these: Escherichia coli, 18 h, read-out: Mimimum Inhibitory Concentrations, IMP-1. The method in brief: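 Broth microdilution in cation-adjusted Mueller-Hinton broth with 20 μM apo-transferrin, compound serially diluted two-fold from 64 μg/mL, against E. coli J53 carrying plasmid-borne IMP-1. Inoculum adjusted to 0.5 McFarland; plates incubated 18 h at 37° C. MIC taken as lowest concentration giving a clear well.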

Experiment [2] concerns Isogenic E. coli J58 strain carrying SHV-1. The experiment in a line: MIC determination, isogenic E. coli strains. The experiment is classed as cell-based. The conditions noted are these: Escherichia coli, 18 h, read-out: Mimimum Inhibitory Concentrations, SHV-1. The method in brief: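 MIC is the lowest compound concentration leaving a transparent well after overnight (18 h) incubation at 37 °C. The test strain was E. coli J53 expressing plasmid-borne SHV-1 beta-lactamase from pBC-SK(+), adjusted to 0.5 McFarland. Compounds were twofold serially diluted, starting at 64 μg/mL, in CAMH broth supplemented with 20 μM apo-transferrin.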

For experiment [3], the system named is Pseudomonas aeruginosa PA-RR-(G8062859). The experiment in a line: MIC determination. The experiment is classed as cell-based. The conditions noted are these: Pseudomonas aeruginosa; PA-RR-(G8062859); CAMH broth, 20 μM Apo-Transferrin, 37° C., 18 hours; read-out: Minimum Inhibitory Concentrations, PA-RR-(G8062859). In a few lines:
(§1)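 Overnight (18 h, 37 °C) microdilution assay. Pre-grown LB cultures were brought to 0.08-0.1 OD600 in cation-adjusted Mueller-Hinton broth; wells contained 20 μM apo-transferrin and compound between 64 and 0.125 μg/mL. Lowest clear-well concentration recorded as MIC.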

In experiment [4] the test system is Pseudomonas aeruginosa PA-RR-(purple Fre D). The experiment in a line: MIC determination. Format: cell-based. The conditions noted are these: Pseudomonas aeruginosa, CAMH broth, 20 μM Apo-Transferrin, 37° C., 18 hours, read-out: Minimum Inhibitory Concentrations, PA-RR-(purple Fre D). The method in brief:
as §1

The test system of experiment [5] is Isogenic E. coli J58 strain carrying KPC-2. The experiment in a line: MIC determination, isogenic E. coli strains. The note with it: Escherichia coli, 18 h, read-out: Mimimum Inhibitory Concentrations, KPC-2. The experiment is classed as cell-based. In a few lines: (§2)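 Strain: E. coli J53 electroporated with a pBC-SK(+) plasmid encoding the KPC enzyme, selected on ampicillin. Twofold dilutions ([…]) were made in CAMH broth containing 20 μM apo-transferrin and inoculated at 0.5 McFarland. After overnight (18 h) growth at 37 °C, MIC was read as the lowest concentration with no visible growth.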

Experiment [6] relates to Isogenic E. coli J58 strain carrying KPC-3. The experiment in a line: MIC determination, isogenic E. coli strains. The experiment is classed as cell-based. The conditions noted are these: Escherichia coli, 18 h, read-out: Mimimum Inhibitory Concentrations, KPC-3. The method in brief:
as §2

Another experiment has as its system KP(ATCC TEM-10/TEM-12). The experiment is classed as cell-based, Klebsiella pneumoniae. The conditions noted are these: CAMH broth, 20 μM Apo-Transferrin, 37° C., 18 hours. The procedure:
(§3) Sterile technique was used throughout these experiments. Suspensions of organisms were removed from storage (−80° C.) and partially thawed. Partially thawed organisms (1 μL) were inoculated into 3 mL sterile LB Broth in a sterile culture tube and capped, then cultured at 37° C. with shaking for 4-5 hours until the optical density at 600 nm (OD600) was greater than 0.1 on a single beam spectrophotometer.
(§4) The concentration of organisms was adjusted to 0.08-0.1 OD600 (0.5 McFarland units) by dilution with sterile cation-adjusted Meuller-Hinton (CAMH) broth. The suspensions were used within 30 minutes of preparation.
(§5) A stock solution was made of each test compound by measuring 6.4 mg of the compound on an analytical balance and dissolving it in DMSO (1 mL) to get a transparent solution. The solutions were stored at −20° C. and thawed prior to use.
(§6) Sterile CAMH broth (200 μL) containing 20 μM Apo-Transferrin was pipetted into the first row of 8 columns of a sterile, round-bottomed, transparent, 96-well microplate using an 8-channel pipette equipped with sterile tips. One hundred μL was pipetted into the wells of the remaining 11 rows.
(§7) With an 8-channel pipette equipped with sterile tips, 100 μL of the first row solution was transferred to the second row and mixed. The process was repeated for the second to third rows and continued through row 11. One hundred μL from row 11 was removed and discarded so that all 12 rows contained 100 μL. Row 12 contained no compound and rows 1-11 contained 64, 32, 16, 8, 4, 2, 1, 0.5, 0.25, 0.125, […] of a given compound.
(§8) Inoculant suspensions (0.5 μL) were added to the 12 wells of each column. The plates were then covered and incubated at 37° C. overnight for 18 hours.
(§9) For each organism the MIC was determined by identifying the transparent well with the lowest test compound concentration.

Another experiment relates to KP(JMI KPC-2). The experiment can be described thus: MIC determination. Format: cell-based, Klebsiella pneumoniae. The conditions noted are these: CAMH broth, 20 μM Apo-Transferrin, 37° C., 18 hours. How it is done:
as §3, §4, §5, §6, §7, §8, §9

The subject of the next experiment is KP (GJ 5659 TEM-26). The experiment can be described thus: MIC determination. Format: cell-based, Klebsiella pneumoniae. The conditions noted are these: CAMH broth, 20 μM Apo-Transferrin, 37° C., 18 hours. How it is done:
as §3, §4, §5, §6, §7, §8, §9

The test system of another experiment is KP(GJ 5934 TEM-26). The experiment can be described thus: MIC determination. Format: cell-based, Klebsiella pneumoniae. The note with it: CAMH broth, 20 μM Apo-Transferrin, 37° C., 18 hours. How it is done: as §3, §4, §5, §6, §7, §8, §9
A further experiment deals with KP (ATCC KPC-3). The experiment can be described thus: MIC determination. The experiment is classed as cell-based, Klebsiella pneumoniae. The note with it: CAMH broth, 20 μM Apo-Transferrin, 37° C., 18 hours. How it is done:
as §3, §4, §5, §6, §7, §8, §9

In a further experiment the test system is ENC (ATCC NDM-1). The experiment in a line: MIC determination. The experiment is classed as cell-based, Enterobacter cloacae. The note with it: CAMH broth, 20 μM Apo-Transferrin, 37° C., 18 hours. How it is done:
as §3, §4, §5, §6, §7, §8, §9

A further experiment concerns EC(KB1 CTX-M-15). The experiment in a line: MIC determination. Format: cell-based, Escherichia coli. The conditions noted are these: Escherichia coli, CAMH broth, 20 μM Apo-Transferrin, 37° C., 18 hours, read-out: Minimum Inhibitory Concentrations, EC(KB1 CTX-M-15). The procedure:
as §3, §4, §5, §6, §7, §8, §9

A further experiment concerns EC(ATCC NDM-1). The experiment can be described thus: MIC determination. The experiment is classed as cell-based, Escherichia coli. The note with it: Escherichia coli, CAMH broth, 20 μM Apo-Transferrin, 37° C., 18 hours, read-out: Minimum Inhibitory Concentrations, EC(ATCC NDM-1). How it is done: as §3, §4, §5, §6, §7, §8, §9
The subject of the next experiment is EC(KB2 CTX-M-15). The experiment in a line: MIC determination. Format: cell-based, Escherichia coli. The note with it: Escherichia coli, CAMH broth, 20 μM Apo-Transferrin, 37° C., 18 hours, read-out: Minimum Inhibitory Concentrations, EC(KB2 CTX-M-15). How it is done:
as §3, §4, §5, §6, §7, §8, §9

A further experiment deals with EC(JMI OXA-48). The experiment can be described thus: MIC determination. The experiment is classed as cell-based, Escherichia coli. The note with it: Escherichia coli, CAMH broth, 20 μM Apo-Transferrin, 37° C., 18 hours, read-out: Minimum Inhibitory Concentrations, EC(JMI OXA-48). The procedure:
as §3, §4, §5, §6, §7, §8, §9

Take `CC(C)(O/N=C(\C(=O)N[C@@H]1C(=O)N2C(C(=O)O)=C(C=Cc3ccc(C[n+]4ccc(NC(=O)c5ccc(O)c(O)c5)cc4)cc3)CS[C@H]12)c1csc(N)n1)C(=O)O` (mixture of isomers) [Compound 427, 1-(4-((E/Z)-2-((6R,7R)-7-((Z)-2-(2-aminothiazol-4-yl)-2-(((2-carboxypropan-2-yl)oxy)imino)acetamido)-2-carboxy-8-oxo-5-thia-1-azabicyclo[4.2.0]oct-2-en-3-yl)vinyl)benzyl)-4-(3,4-dihydroxybenzamido)pyridin-1-ium]: the MIC was 16 µg/mL in [1]; 1 µg/mL in experiment [2]; 0.25 µg/mL in [3]; 0.25 µg/mL in [4]; 16 µg/mL in experiment [5]; 4 µg/mL in experiment [6].
For the compound `CC(C)(O/N=C(\C(=O)N[C@@H]1C(=O)N2C(C(=O)O)=C(C=Cc3ccc(C[N+](C)(C)Cc4ccc(O)c(O)c4Cl)cc3)CS[C@H]12)c1csc(N)n1)C(=O)O` (mixture of isomers) [Compound 434, N-(4-((E/Z)-2-((6R,7R)-7-((Z)-2-(2-aminothiazol-4-yl)-2-(((2-carboxypropan-2-yl)oxy)imino)acetamido)-2-carboxy-8-oxo-5-thia-1-azabicyclo[4.2.0]oct-2-en-3-yl)vinyl)benzyl)-1-(2-chloro-3,4-dihydroxyphenyl)-N,N-dimethylmethanaminium], the MIC amounted to 0.25 µg/mL in experiment [1]; 1 µg/mL in experiment [2]; 2 µg/mL in experiment [3]; 2 µg/mL in experiment [4]; 16 µg/mL in experiment [5]; 64 µg/mL in experiment [6].
As to `CC(C)(O/N=C(\C(=O)N[C@@H]1C(=O)N2C(C(=O)O)=C(C=Cc3ccc(C[N+](C)(C)Cc4cc(O)c(O)c(Cl)c4)cc3)CS[C@H]12)c1csc(N)n1)C(=O)O` (mixture of isomers) [Compound 436, N-(4-((E/Z)-2-((6R,7R)-7-((Z)-2-(2-aminothiazol-4-yl)-2-(((2-carboxypropan-2-yl)oxy)imino)acetamido)-2-carboxy-8-oxo-5-thia-1-azabicyclo[4.2.0]oct-2-en-3-yl)vinyl)benzyl)-1-(3-chloro-4,5-dihydroxyphenyl)-N,N-dimethylmethanaminium], the MIC amounted to 8 µg/mL in [1]; 1 µg/mL in experiment [2]; 5 µg/mL in experiment [3]; 2 µg/mL in experiment [4]; 64 µg/mL in [5]; 8 µg/mL in experiment [6].
Consider `C#CC[N+]1(Cc2ccc(C=CC3=C(C(=O)O)N4C(=O)[C@@H](NC(=O)/C(=N\OC(C)(C)C(=O)O)c5csc(N)n5)[C@H]4SC3)cc2)CCc2cc(O)c(O)cc2C1` (mixture of isomers) [Compound 446, 2-(4-((E/Z)-2-((6R,7R)-7-((Z)-2-(2-aminothiazol-4-yl)-2-(((2-carboxypropan-2-yl)oxy)imino)acetamido)-2-carboxy-8-oxo-5-thia-1-azabicyclo[4.2.0]oct-2-en-3-yl)vinyl)benzyl)-6,7-dihydroxy-2-(prop-2-yn-1-yl)-1,2,3,4-tetrahydroisoquinolin-2-ium], for which, in the experiment on KP(ATCC TEM-10/TEM-12), the “Minimum Inhibitory Concentrations, KP(ATCC TEM-10/TEM-12)” value stood at 16 microgram/mL. For the same compound, the MIC in experiment [1] is 1 µg/mL; in [5], 2 µg/mL; in experiment [6], 1 µg/mL; in the experiment on EC(KB1 CTX-M-15) it was 64 µg/mL; in the experiment on EC(ATCC NDM-1), > 64 µg/mL; in the experiment on EC(KB2 CTX-M-15), > 64 µg/mL. Besides, the MIC in the experiment on EC(JMI OXA-48) was 16 µg/mL. Besides, the “Minimum Inhibitory Concentrations, KP(JMI KPC-2)” value in the experiment with KP(JMI KPC-2) came to 32 microgram/mL. For the same compound, in the experiment with KP (GJ 5659 TEM-26), the “Minimum Inhibitory Concentrations, KP (GJ 5659 TEM-26)” value came out at 2 microgram/mL. Also, the “Minimum Inhibitory Concentrations, KP(GJ 5934 TEM-26)” value with KP(GJ 5934 TEM-26) was determined as 0.5 microgram/mL. Besides, in the experiment on KP (ATCC KPC-3), the “Minimum Inhibitory Concentrations, KP (ATCC KPC-3)” value stood at 64 microgram/mL. For the same compound, the “Mimimum Inhibitory Concentrations, ENC (ATCC NDM-1)” value in the experiment on ENC (ATCC NDM-1) was >64 microgram/mL.
